Data reported in patent US12049450B2, “Pyridyloxy-carboxylate derivative and preparation method therefor, herbicidal composition, and use” (Qingdao Kingagroot Chemical Compound Co., Ltd., priority 2018, dated 2024).

Legend:
Test in all cases: Post-emergence test experiment (greenhouse pot, spray at 2-3 leaf stage)
Assay type in all cases: in vivo
Details in all cases: 1000 g/ha; post-emergence spray at 2-3 leaf stage; assessed after 3 weeks; fresh weight inhibition rate
Monochoria vaginalis = test system: Monochoria vaginalis
From the text: (§1) The activity level standard of harmful plants destruction (i. e. growth inhibition rate) is as follows: • Level 5: the growth inhibition rate is greater than 85%; • Level 4: the growth inhibition rate is equal to or greater than 60% and less than 85%; • Level 3: the growth inhibition rate is equal to or greater than 40% and less than 60%; • Level 2: the growth inhibition rate is equal to or greater than 20% and less than 40%; • Level 1: the growth inhibition rate is equal to or greater than 5% and less than 20%; • Level 0: the growth inhibition rate is less than 5%;
(§2) The above described growth inhibition rate is fresh weight inhibition rate.
(§3) Post-emergence test experiment: Monocotyledonous and dicotyledonous weed seeds and main crop seeds (i. e. wheat, corn, rice, soybean, cotton, oilseed, millet and sorghum.) were put into a plastic pot loaded with soil. Then covered with 0.5-2 cm soil, the seeds were allowed to grow in good greenhouse environment. The test plants were treated at 2-3 leaf stage 2 weeks after sowing. The test compounds of the invention were dissolved with acetone respectively, then added with tween-80, and using 1.5 liters per hectare of an emulsible concentrate of methyl oleate as a synergist, and diluted by certain amount of water to certain concentration. The solution was sprayed to the plants with a sprayer. Then the plants were cultured for 3 weeks in the greenhouse, and the experiment result of weed controlling effect after 3 weeks was listed in tables 3-4.

Abutilon theophrasti = test system: Abutilon theophrasti
From the text: as §1, §2, §3

Galium spurium = test system: Galium spurium
From the text: as §1, §2, §3

Structure (SMILES)	Activity level (growth inhibition rate) Monochoria Vaginalis (Monochoria vaginalis)	Activity level (growth inhibition rate) Abutilon theophrasti (Abutilon theophrasti)	Activity level (growth inhibition rate) Galium spurium (Galium spurium)
CCC(Oc1nc(F)c(Cl)c(N)c1Cl)C(=O)OCc1ccccc1 (stereo not drawn) [Compound 25]	5 (Level 5: the growth inhibition rate is greater than 85%)	5 (Level 5: the growth inhibition rate is greater than 85%)	5 (Level 5: the growth inhibition rate is greater than 85%)
CCCC(Oc1nc(F)c(Cl)c(N)c1Cl)C(=O)SCc1ccccc1 (stereo not drawn) [Compound 26]	5 (Level 5: the growth inhibition rate is greater than 85%)	5 (Level 5: the growth inhibition rate is greater than 85%)	5 (Level 5: the growth inhibition rate is greater than 85%)
Nc1c(Cl)c(F)nc(OC(C(=O)OCc2ccccc2)C2CC2)c1Cl (stereo not drawn) [Compound 28]	5 (Level 5: the growth inhibition rate is greater than 85%)	5 (Level 5: the growth inhibition rate is greater than 85%)	5 (Level 5: the growth inhibition rate is greater than 85%)
COCC(Oc1nc(F)c(Cl)c(N)c1Cl)C(=O)OCc1ccccc1 (stereo not drawn) [Compound 29]	5 (Level 5: the growth inhibition rate is greater than 85%)	5 (Level 5: the growth inhibition rate is greater than 85%)	5 (Level 5: the growth inhibition rate is greater than 85%)
COCCC(Oc1nc(F)c(Cl)c(N)c1Cl)C(=O)SCc1ccccc1 (stereo not drawn) [Compound 30]	5 (Level 5: the growth inhibition rate is greater than 85%)	5 (Level 5: the growth inhibition rate is greater than 85%)	5 (Level 5: the growth inhibition rate is greater than 85%)
COC(C)C(Oc1nc(F)c(Cl)c(N)c1Cl)C(=O)OCc1ccccc1 (stereo not drawn) [Compound 31]	5 (Level 5: the growth inhibition rate is greater than 85%)	5 (Level 5: the growth inhibition rate is greater than 85%)	5 (Level 5: the growth inhibition rate is greater than 85%)
C=CC(Oc1nc(F)c(Cl)c(N)c1Cl)C(=O)OCc1ccccc1 (stereo not drawn) [Compound 32]	5 (Level 5: the growth inhibition rate is greater than 85%)	5 (Level 5: the growth inhibition rate is greater than 85%)	5 (Level 5: the growth inhibition rate is greater than 85%)
C#CC(Oc1nc(F)c(Cl)c(N)c1Cl)C(=O)SCc1ccccc1 (stereo not drawn) [Compound 33]	5 (Level 5: the growth inhibition rate is greater than 85%)	5 (Level 5: the growth inhibition rate is greater than 85%)	5 (Level 5: the growth inhibition rate is greater than 85%)
Nc1c(Cl)c(F)nc(OC(F)C(=O)OCc2ccccc2)c1Cl (stereo not drawn) [Compound 34]	5 (Level 5: the growth inhibition rate is greater than 85%)	5 (Level 5: the growth inhibition rate is greater than 85%)	5 (Level 5: the growth inhibition rate is greater than 85%)
Nc1c(Cl)c(F)nc(OC(Cl)C(=O)OCc2ccccc2)c1Cl (stereo not drawn) [Compound 35]	5 (Level 5: the growth inhibition rate is greater than 85%)	5 (Level 5: the growth inhibition rate is greater than 85%)	5 (Level 5: the growth inhibition rate is greater than 85%)
Nc1c(Cl)c(F)nc(OC(Br)C(=O)SCc2ccccc2)c1Cl (stereo not drawn) [Compound 36]	5 (Level 5: the growth inhibition rate is greater than 85%)	5 (Level 5: the growth inhibition rate is greater than 85%)	5 (Level 5: the growth inhibition rate is greater than 85%)
